# From patent US7384933B2, “Derivatives of 2-hydroxytetrahydrofuran and their use as medicaments” (priority 2003, dated 2008)
row,Compound,melting point
1,"CC(C)C[C@H](NC(=O)[C@H](CCCCNC(=O)OCc1ccccc1)NC(=O)c1ccc2c(c1)Nc1ccccc1S2)C(=O)N[C@H]1CCOC1O (stereo partly drawn) [Example 9, N 6-[(benzyloxy)carbonyl]-N^2-(10H-phenothiazin-2-ylcarbonyl)lysyl-N^1-[(3S)-2-hydroxytetrahydrofuran-3-yl]-L-leucinamide]",109 to 109.5 °C
2,"C[C@H](NC(=O)Cc1ccc2c(c1)Nc1ccccc1S2)C(=O)N[C@@H](CC1CCCCC1)C(=O)N[C@H]1CCOC1O (stereo partly drawn) [Example 18, N-(10H-phenothiazin-2-ylacetyl)-L-alanyl-3-cyclohexyl-N^1-[(3S)-2-hydroxytetrahydrofuran-3-yl]-L-alaninamide]",215 to 217 °C
3,COC1OCC[C@@H]1NC(=O)[C@H](CC(C)C)NC(=O)C(C)(C)NC(=O)COc1ccc2c(c1)Nc1ccccc1S2 (some centres unmarked),119 to 120 °C
4,CCC[C@H](NC(=O)COc1ccc2c(c1)Nc1ccccc1S2)C(=O)N[C@@H](CC(C)C)C(=O)N[C@H]1CCOC1OC (some centres unmarked),225 to 226 °C
5,COC1OCC[C@@H]1NC(=O)[C@H](CC(C)C)NC(=O)[C@@H](NC(=O)COc1ccc2c(c1)Nc1ccccc1S2)[C@@H](C)O (some centres unmarked),92 to 93 °C
6,COC1OCC[C@@H]1NC(=O)[C@H](CC(C)C)NC(=O)[C@@H](NC(=O)COc1ccc2c(c1)Nc1ccccc1S2)C(C)C (some centres unmarked),240 to 241 °C
7,"CC(C)C[C@H](NC(=O)COc1ccc2c(c1)Nc1ccccc1S2)C(=O)N[C@@H](CC(C)C)C(=O)N[C@H]1CCOC1O (stereo partly drawn) [Example 40, N-[(10H-phenothiazin-2-yloxy)acetyl]-L-leucyl-N^1-[(3S)-2-hydroxytetrahydrofuran-3-yl]-L-leucinamide]",141.5 to 142 °C
8,COC1OCC[C@@H]1NC(=O)[C@H](CC(C)C)NC(=O)[C@H](CCCCNC(=O)OCc1ccccc1)NC(=O)c1ccc2c(c1)Nc1ccccc1S2 (some centres unmarked),102 to 103 °C
9,"CC(C)C[C@H](NC(=O)CNC(=O)c1ccc2c(c1)Nc1ccccc1S2)C(=O)N[C@H]1CCOC1O (stereo partly drawn) [Example 7, N-(10H-phenothiazin-2-ylcarbonyl)glycyl-N^1-[(3S)-2-hydroxytetrahydrofuran-3-yl]-L-leucinamide]",126 to 126.5 °C
10,"O=C(COc1ccc2c(c1)Nc1ccccc1S2)NCC(=O)N[C@@H](CC1CCCCC1)C(=O)N[C@H]1CCOC1O (stereo partly drawn) [Example 56, N-[(10H-phenothiazin-2-yloxy)acetyl]glycyl-3-cyclohexyl-N^1-[(3S)-2-hydroxytetrahydrofuran-3-yl]-L-alaninamide]",212 to 215 °C
11,COC1OCC[C@@H]1NC(=O)[C@H](CC(C)C)NC(=O)[C@H](NC(=O)COc1ccc2c(c1)Nc1ccccc1S2)C(C)C (some centres unmarked),204 to 206 °C
12,COC1OCC[C@@H]1NC(=O)[C@H](CC(C)C)NC(=O)[C@H](CC(C)C)NC(=O)c1ccc2c(c1)Nc1ccccc1S2 (some centres unmarked),180 to 180.5 °C
13,CC(C)C[C@H](NC(=O)C(C)(C)NC(=O)COc1ccc2c(c1)Nc1ccccc1S2)C(=O)N[C@H]1CCOC1O (some centres unmarked) [Example 54],138 to 140 °C
14,"CC(C)C[C@H](NC(=O)[C@H](C)NC(=O)COc1ccc2c(c1)Nc1ccccc1S2)C(=O)N[C@H]1CCOC1O (stereo partly drawn) [Example 42, N-[(10H-phenothiazin-2-yloxy)acetyl]-L-alanyl-N^1-[(3S)-2-hydroxytetrahydrofuran-3-yl]-L-leucinamide]",144 to 146 °C
